The structures appear in SMILES notation. Active and inactive are the calls of the source. The rule behind the calls is not given here.

In assay [1] the target is T1, D(4) dopamine receptor (Homo sapiens) (UniProt P21917).
T1 sequence (whole entry): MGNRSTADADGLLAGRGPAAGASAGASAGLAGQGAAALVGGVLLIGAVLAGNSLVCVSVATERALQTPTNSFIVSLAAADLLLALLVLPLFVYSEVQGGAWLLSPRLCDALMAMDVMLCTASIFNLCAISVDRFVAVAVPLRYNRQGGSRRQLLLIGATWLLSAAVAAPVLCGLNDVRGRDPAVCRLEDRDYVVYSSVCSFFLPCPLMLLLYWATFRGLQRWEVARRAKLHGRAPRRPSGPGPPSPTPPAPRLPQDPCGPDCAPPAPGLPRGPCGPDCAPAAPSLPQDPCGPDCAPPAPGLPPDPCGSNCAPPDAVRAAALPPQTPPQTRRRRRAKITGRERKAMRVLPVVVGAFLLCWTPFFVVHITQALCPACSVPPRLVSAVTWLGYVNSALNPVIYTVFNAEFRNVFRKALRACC
The assay can be described thus: Displacement of [3H]N-methylspiperone from human dopamine D4 receptor at 10 uM incubated for 1 hr by liquid scintillation counting method.

Assay [2] concerns the target T2, 5-hydroxytryptamine receptor 2C (Homo sapiens) (UniProt P28335).
T2 sequence (whole entry): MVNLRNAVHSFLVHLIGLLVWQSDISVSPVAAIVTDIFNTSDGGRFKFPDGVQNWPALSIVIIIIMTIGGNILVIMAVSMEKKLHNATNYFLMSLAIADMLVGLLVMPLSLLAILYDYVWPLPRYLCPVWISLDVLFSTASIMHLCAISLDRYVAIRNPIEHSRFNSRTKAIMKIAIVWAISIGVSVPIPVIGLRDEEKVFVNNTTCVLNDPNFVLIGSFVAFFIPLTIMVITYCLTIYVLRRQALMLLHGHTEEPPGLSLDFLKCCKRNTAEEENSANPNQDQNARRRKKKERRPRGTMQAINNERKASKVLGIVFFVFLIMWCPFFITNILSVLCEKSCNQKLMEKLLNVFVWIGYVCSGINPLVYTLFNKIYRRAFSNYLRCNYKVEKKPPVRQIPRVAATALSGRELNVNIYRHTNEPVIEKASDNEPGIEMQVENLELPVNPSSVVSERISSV
The assay can be described thus: Displacement of [3H]-Mesulergine from human 5-HT2C receptor at 10 uM incubated for 1 hr by liquid scintillation counting method. A general note: In a radioligand displacement assay an active substance lowers the binding of a labelled ligand.

For assay [3], the target named is D(2) dopamine receptor (Homo sapiens, UniProt P14416). The assay is described as follows: Displacement of [3H]N-methylspiperone from human dopamine D2 receptor at 10 uM incubated for 1 hr by liquid scintillation counting method.
Assay [4] addresses D(3) dopamine receptor (Homo sapiens, UniProt P35462). The assay can be described thus: Displacement of [3H]N-methylspiperone from human dopamine D3 receptor at 10 uM incubated for 1 hr by liquid scintillation counting method.

D(2) dopamine receptor, sequence (P14416 whole entry): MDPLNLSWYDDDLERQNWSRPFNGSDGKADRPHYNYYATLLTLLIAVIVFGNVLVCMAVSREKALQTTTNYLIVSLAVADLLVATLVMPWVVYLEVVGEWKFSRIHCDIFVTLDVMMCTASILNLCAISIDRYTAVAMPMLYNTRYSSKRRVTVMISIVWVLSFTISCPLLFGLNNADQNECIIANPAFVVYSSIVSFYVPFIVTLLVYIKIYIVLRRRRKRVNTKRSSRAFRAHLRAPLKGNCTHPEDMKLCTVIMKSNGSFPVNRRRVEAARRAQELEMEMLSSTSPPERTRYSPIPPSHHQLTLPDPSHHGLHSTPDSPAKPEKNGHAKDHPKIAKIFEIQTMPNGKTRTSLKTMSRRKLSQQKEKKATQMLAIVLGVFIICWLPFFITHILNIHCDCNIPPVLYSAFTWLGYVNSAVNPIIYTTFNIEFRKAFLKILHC
D(3) dopamine receptor, sequence (P35462 whole entry): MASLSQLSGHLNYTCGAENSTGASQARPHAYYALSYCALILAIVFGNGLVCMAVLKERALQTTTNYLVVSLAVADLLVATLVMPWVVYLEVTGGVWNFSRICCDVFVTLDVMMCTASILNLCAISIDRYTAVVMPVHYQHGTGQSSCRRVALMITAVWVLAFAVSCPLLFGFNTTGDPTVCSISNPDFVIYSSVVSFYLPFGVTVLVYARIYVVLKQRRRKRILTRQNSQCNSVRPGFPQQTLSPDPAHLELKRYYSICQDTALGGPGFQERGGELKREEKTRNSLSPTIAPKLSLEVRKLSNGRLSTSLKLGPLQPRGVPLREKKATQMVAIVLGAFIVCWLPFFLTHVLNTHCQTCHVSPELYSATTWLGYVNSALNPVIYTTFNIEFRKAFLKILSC

Consider `O=C1CCc2cc(OCCCN3CCCN(c4ccccn4)CC3)ccc2N1`, for which the inhibition entry in assay [1] is “inactive”.
Regarding `OC1c2ccc(F)cc2CC1CCN1CCN(c2ccccn2)CC1` (stereo not given), the inhibition result in assay [2] is “inactive”.
For the compound `O=C1c2ccc(Cl)cc2CC1CCCN1CCN(c2ccccn2)CC1` (stereo not given), the inhibition result in assay [3] was “inactive”.
For the compound `O=C1CCc2cc(OCCCN3CCN(c4ccccn4)CC3)ccc21`, the inhibition entry in assay [3] was “inactive”.
`O=C1c2ccc(F)cc2CC1CCN1CCN(c2ccccn2)CC1` (stereo not given): the inhibition entry in assay [3] and in assay [2] was “inactive” throughout.
As for `O=C1CCc2cc(C(=O)CCCN3CCN(c4ccccn4)CC3)ccc2N1`, in assay [2], the inhibition entry is “inactive”.
On the same count and under the same terms, the result for `Nc1ccc(CCCCN2CCN(c3ccccn3)CC2)cc1` reads “inactive”.
Consider `O=C1c2ccc(Cl)cc2CC1CCN1CCN(c2ccccn2)CC1` (stereo not given), for which the inhibition result in assay [4] and in assay [3] was “inactive” each time.

The values are drawn from ChEMBL document CHEMBL4813955 (Eur J Med Chem, 2021).
